Measurements taken from article PMC8330742, “New benzothieno[2,3-c]pyridines as non-steroidal CYP17 inhibitors: design, synthesis, anticancer screening, apoptosis induction, and in silico ADME profile studies” (Journal of Enzyme Inhibition and Medicinal Chemistry, 2021).

Tests used:
CCRF-CEM = experiment: NCI-60 SRB screen; assay type: cell-based; details: Homo sapiens, single dose 10^−5 M, read-out: Growth inhibition (%)
HL-60(TB) = experiment: NCI-60 SRB screen; assay type: cell-based, human; details: Homo sapiens; HL-60 (TB); single dose 10^−5 M; read-out: Growth inhibition (%)
K-562 = experiment: NCI-60 SRB screen; assay type: cell-based, human; details: Homo sapiens, K562; K-562; single dose 10^−5 M; read-out: Growth inhibition (%)
MOLT-4 = experiment: NCI-60 SRB screen; assay type: cell-based; details: Homo sapiens; MOLT-4; single dose 10^−5 M; read-out: Growth inhibition (%)
SR = experiment: NCI-60 SRB screen; assay type: cell-based; details: Homo sapiens, single dose 10^−5 M, read-out: Growth inhibition (%)
A549/ATCC = experiment: NCI-60 SRB screen; assay type: cell-based, human; details: Homo sapiens, single dose 10^−5 M, read-out: Growth inhibition (%)
EKVX = experiment: NCI-60 SRB screen; assay type: cell-based, human; details: Homo sapiens, single dose 10^−5 M, read-out: Growth inhibition (%)
HOP-62 = experiment: NCI-60 SRB screen; assay type: cell-based, human; details: Homo sapiens; HOP-62; single dose 10^−5 M; read-out: Growth inhibition (%)
HOP-92 = experiment: NCI-60 SRB screen; assay type: cell-based, human; details: Homo sapiens; HOP-92; single dose 10^−5 M; read-out: Growth inhibition (%)
NCI-H226 = experiment: NCI-60 SRB screen; assay type: cell-based, human; details: Homo sapiens; NCI-H226; single dose 10^−5 M; read-out: Growth inhibition (%)
NCI-H23 = experiment: NCI-60 SRB screen; assay type: cell-based, human; details: Homo sapiens; NCI-H23; single dose 10^−5 M; read-out: Growth inhibition (%)
NCI-H322M = experiment: NCI-60 SRB screen; assay type: cell-based, human; details: Homo sapiens, single dose 10^−5 M, read-out: Growth inhibition (%)
NCI-H460 = experiment: NCI-60 SRB screen; assay type: cell-based, human; details: Homo sapiens; NCI-H460; single dose 10^−5 M; read-out: Growth inhibition (%)
NCI-H522 = experiment: NCI-60 SRB screen; assay type: cell-based, human; details: Homo sapiens; NCI-H522; single dose 10^−5 M; read-out: Growth inhibition (%)
COLO 205 = experiment: NCI-60 SRB screen; assay type: cell-based, human; details: Homo sapiens; COLO 205; single dose 10^−5 M; read-out: Growth inhibition (%)
HCC-2998 = experiment: NCI-60 SRB screen; assay type: cell-based, human; details: Homo sapiens; HCC-2998; single dose 10^−5 M; read-out: Growth inhibition (%)
HCT-116 = experiment: NCI-60 SRB screen; assay type: cell-based, human; details: Homo sapiens; HCT-116; single dose 10^−5 M; read-out: Growth inhibition (%)
HCT-15 = experiment: NCI-60 SRB screen; assay type: cell-based, human; details: Homo sapiens; HCT-15; single dose 10^−5 M; read-out: Growth inhibition (%)
HT-29 = experiment: NCI-60 SRB screen; assay type: cell-based; details: Homo sapiens; HT-29; single dose 10^−5 M; read-out: Growth inhibition (%)
KM12 = experiment: NCI-60 SRB screen; assay type: cell-based, human; details: Homo sapiens; KM12; single dose 10^−5 M; read-out: Growth inhibition (%)
SW-620 = experiment: NCI-60 SRB screen; assay type: cell-based; details: Homo sapiens; SW-620; single dose 10^−5 M; read-out: Growth inhibition (%)
SF-268 = experiment: NCI-60 SRB screen; assay type: cell-based, human; details: Homo sapiens; SF-268; single dose 10^−5 M; read-out: Growth inhibition (%)
SF-295 = experiment: NCI-60 SRB screen; assay type: cell-based, human; details: Homo sapiens; SF-295; single dose 10^−5 M; read-out: Growth inhibition (%)
LOX IMVI = experiment: NCI-60 SRB screen; assay type: cell-based, human; details: Homo sapiens, single dose 10^−5 M, read-out: Growth inhibition (%)
MALME-3M = experiment: NCI-60 SRB screen; assay type: cell-based, human; details: Homo sapiens, single dose 10^−5 M, read-out: Growth inhibition (%)
M14 = experiment: NCI-60 SRB screen; assay type: cell-based, human; details: Homo sapiens; M14; single dose 10^−5 M; read-out: Growth inhibition (%)
MDA-MB-435 = experiment: NCI-60 SRB screen; assay type: cell-based; details: Homo sapiens, MDA-MB-435, read-out: Growth inhibition (%)
SK-MEL-2 = experiment: NCI-60 SRB screen; assay type: cell-based, human; details: Homo sapiens; SK-MEL-2; single dose 10^−5 M; read-out: Growth inhibition (%)
SK-MEL-28 = experiment: NCI-60 SRB screen; assay type: cell-based; details: Homo sapiens; SK-MEL-28; single dose 10^−5 M; read-out: Growth inhibition (%)
SK-MEL-5 = experiment: NCI-60 SRB screen; assay type: cell-based, human; details: Homo sapiens; SK-MEL-5; single dose 10^−5 M; read-out: Growth inhibition (%)
UACC-62 = experiment: NCI-60 SRB screen; assay type: cell-based, human; details: Homo sapiens; UACC-62; single dose 10^−5 M; read-out: Growth inhibition (%)
IGROV1 = experiment: NCI-60 SRB screen; assay type: cell-based, human; details: Homo sapiens, IGROV-1; IGROV1; single dose 10^−5 M; read-out: Growth inhibition (%)
OVCAR-3 = experiment: NCI-60 SRB screen; assay type: cell-based, human; details: Homo sapiens; OVCAR-3; single dose 10^−5 M; read-out: Growth inhibition (%)
OVCAR-4 = experiment: NCI-60 SRB screen; assay type: cell-based, human; details: Homo sapiens; OVCAR-4; single dose 10^−5 M; read-out: Growth inhibition (%)
OVCAR-8 = experiment: NCI-60 SRB screen; assay type: cell-based, human; details: Homo sapiens; OVCAR-8; single dose 10^−5 M; read-out: Growth inhibition (%)
NCI/ADR-RES = experiment: NCI-60 SRB screen; assay type: cell-based, human; details: Homo sapiens, single dose 10^−5 M, read-out: Growth inhibition (%)
SK-OV-3 = experiment: NCI-60 SRB screen; assay type: cell-based, human; details: Homo sapiens; SK-OV-3; single dose 10^−5 M; read-out: Growth inhibition (%)
ACHN = experiment: NCI-60 SRB screen; assay type: cell-based; details: Homo sapiens, single dose 10^−5 M, read-out: Growth inhibition (%)
CAKI-1 = experiment: NCI-60 SRB screen; assay type: cell-based, human; details: Homo sapiens; CAKI-1; single dose 10^−5 M; read-out: Growth inhibition (%)
RXF 393 = experiment: NCI-60 SRB screen; assay type: cell-based, human; details: Homo sapiens; RXF 393; single dose 10^−5 M; read-out: Growth inhibition (%)
SN12C = experiment: NCI-60 SRB screen; assay type: cell-based, human; details: Homo sapiens, SN12C; SN 12 C; single dose 10^−5 M; read-out: Growth inhibition (%)
TK-10 = experiment: NCI-60 SRB screen; assay type: cell-based, human; details: Homo sapiens; TK-10; single dose 10^−5 M; read-out: Growth inhibition (%)
UO-31 = experiment: NCI-60 SRB screen; assay type: cell-based, human; details: Homo sapiens; UO-31; single dose 10^−5 M; read-out: Growth inhibition (%)
[1] = system: panel of 60 cancer cell lines; experiment: NCI-60 SRB screen, mean or range over the panel; assay type: cell-based, human; details: Homo sapiens; mean over the cell lines; single dose 10^−5 M; read-out: Mean growth inhibition (%)

O=C1C(=Cc2ccccc2[N+](=O)[O-])Sc2c(F)cccc21 [Compound 2c, 7-Fluoro-2-(2-nitrobenzylidene)[1]benzothiophen-3(2H)-one]
inhibition at 10 µM (CCRF-CEM): 26.3%
inhibition at 10 µM (HL-60(TB)): 28.8%
inhibition at 10 µM (K-562): 67.8%
inhibition at 10 µM (MOLT-4): 19.8%
inhibition at 10 µM (SR): 37.2%
inhibition at 10 µM (A549/ATCC): 4.91%
inhibition at 10 µM (EKVX): 15.6%
inhibition at 10 µM (HOP-62): 20.4%
inhibition at 10 µM (HOP-92): -11.4%
inhibition at 10 µM (NCI-H226): 23.5%
inhibition at 10 µM (NCI-H23): 13.3%
inhibition at 10 µM (NCI-H322M): 1.98%
inhibition at 10 µM (NCI-H460): 59.2%
inhibition at 10 µM (NCI-H522): 2.94%
inhibition at 10 µM (COLO 205): -6.61%
inhibition at 10 µM (HCC-2998): -11.4%
inhibition at 10 µM (HCT-116): 80.5%
inhibition at 10 µM (HCT-15): -1.05%
inhibition at 10 µM (HT-29): -7.17%
inhibition at 10 µM (KM12): 3.27%
inhibition at 10 µM (SW-620): 68.8%
inhibition at 10 µM (SF-268): 5.43%
inhibition at 10 µM (SF-295): 27%
inhibition at 10 µM (LOX IMVI): 11.1%
inhibition at 10 µM (MALME-3M): 12.6%
inhibition at 10 µM (M14): -1.11%
inhibition at 10 µM (MDA-MB-435): -12.1%
inhibition at 10 µM (SK-MEL-2): -9.11%
inhibition at 10 µM (SK-MEL-28): -4.83%
inhibition at 10 µM (SK-MEL-5): 8.44%
inhibition at 10 µM (UACC-62): 60.9%
inhibition at 10 µM (IGROV1): 66.5%
inhibition at 10 µM (OVCAR-3): 70.8%
inhibition at 10 µM (OVCAR-4): 40.5%
inhibition at 10 µM (OVCAR-8): 6.75%
inhibition at 10 µM (NCI/ADR-RES): 13.5%
inhibition at 10 µM (SK-OV-3): 2.42%
inhibition at 10 µM (ACHN): 7.28%
inhibition at 10 µM (CAKI-1): 85.1%
inhibition at 10 µM (RXF 393): -3.1%
inhibition at 10 µM (SN12C): 7.57%
inhibition at 10 µM (TK-10): -30.9%
inhibition at 10 µM (UO-31): 29.9%
inhibition at 10 µM [1]: 11.5%

COc1ccc(C2NC(=O)C(Cl)c3c2sc2c(F)cccc32)c(OC)c1 (stereo not shown) [Compound 4a, 4-Chloro-1-(2,4-Dimethoxyphenyl)-8-fluoro-1,2-dihydro[1]benzothieno [2,3-c]pyridine-3(4H)-one]
inhibition at 10 µM (CCRF-CEM): -1.02%
inhibition at 10 µM (HL-60(TB)): 0.73%
inhibition at 10 µM (K-562): 12.5%
inhibition at 10 µM (MOLT-4): 4.69%
inhibition at 10 µM (SR): 36.6%
inhibition at 10 µM (A549/ATCC): -4.25%
inhibition at 10 µM (EKVX): 2.22%
inhibition at 10 µM (HOP-62): 9.42%
inhibition at 10 µM (HOP-92): 9.64%
inhibition at 10 µM (NCI-H226): 13.6%
inhibition at 10 µM (NCI-H23): 1.72%
inhibition at 10 µM (NCI-H322M): -4.72%
inhibition at 10 µM (NCI-H460): -1.09%
inhibition at 10 µM (NCI-H522): 8.58%
inhibition at 10 µM (COLO 205): -16.7%
inhibition at 10 µM (HCC-2998): -7.97%
inhibition at 10 µM (HCT-116): -2.4%
inhibition at 10 µM (HCT-15): -9.27%
inhibition at 10 µM (HT-29): -10.5%
inhibition at 10 µM (KM12): 3.86%
inhibition at 10 µM (SW-620): -0.16%
inhibition at 10 µM (SF-268): 9.64%
inhibition at 10 µM (SF-295): -2.33%
inhibition at 10 µM (LOX IMVI): 4.84%
inhibition at 10 µM (MALME-3M): 9.21%
inhibition at 10 µM (M14): 3.25%
inhibition at 10 µM (MDA-MB-435): 8.55%
inhibition at 10 µM (SK-MEL-2): -23.2%
inhibition at 10 µM (SK-MEL-28): -1.74%
inhibition at 10 µM (SK-MEL-5): -1.74%
inhibition at 10 µM (UACC-62): 10.9%
inhibition at 10 µM (IGROV1): 10.3%
inhibition at 10 µM (OVCAR-3): 1.99%
inhibition at 10 µM (OVCAR-4): -1.63%
inhibition at 10 µM (OVCAR-8): -0.71%
inhibition at 10 µM (NCI/ADR-RES): -5.94%
inhibition at 10 µM (SK-OV-3): 0.53%
inhibition at 10 µM (ACHN): 12.4%
inhibition at 10 µM (CAKI-1): 27.5%
inhibition at 10 µM (RXF 393): -0.71%
inhibition at 10 µM (SN12C): 9.45%
inhibition at 10 µM (TK-10): -25.5%
inhibition at 10 µM (UO-31): 40.3%
inhibition at 10 µM [1]: 1.85%
